Test results: patent US20230085307A1, “PYRIDAZINONE COMPOUND AND HERBICIDE” (NISSAN CHEMICAL CORPORATION, priority 2019, published 2023)

Experiments:
[1] = system: persian speedwell; test: Test Example 5: herbicidal effect by foliage application, plastic box (Table 20, symbol R); assay type: in vivo, Persian speedwell (Veronica persica)
Method in brief: (§1)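 Plants sown in sterilized diluvial soil and grown 14 days in a greenhouse at 25° C to 30° C, then sprayed on the foliage with the compound's emulsion diluted in water to a predetermined herbicide amount. Injury to weeds and crops scored three weeks after application on a visual rating scale.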

[2] = system: barnyard grass; test: Test Example 5: herbicidal effect by foliage application, plastic box (Table 20, symbol H); assay type: in vivo, barnyard grass (Echinochloa crus-galli)
Method in brief: as §1

[3] = system: barnyard grass; test: Test Example 3: herbicidal effect by foliage application, Wagner pot (Table 18, symbol H); assay type: in vivo, barnyard grass (Echinochloa crus-galli); settings: 320 g/ha
Method in brief: (§2)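 Plants were sown in alluvial soil held under 0.1–0.5 cm standing water and grown 14 days in a greenhouse at 25–30 °C. An emulsifiable formulation, water-diluted to the set dose, was then sprayed onto the foliage, and effects were scored three weeks later using previously defined criteria.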

[4] = system: green foxtail; test: Test Example 4: herbicidal effect by soil treatment (Table 19, symbol G); assay type: in vivo, green foxtail (Setaria viridis)
Method in brief: (§3)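 Seeds were sown in sterilized diluvial soil and covered with about 1.5 cm of soil. An emulsion formulation diluted with water to a predetermined herbicide amount was sprayed evenly onto the soil surface. Plants grew in a greenhouse at 25° C. to 30° C., and the effect was scored three weeks after application using criteria from an earlier test.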

[5] = system: windgrass; test: Test Example 5: herbicidal effect by foliage application, plastic box (Table 20, symbol L); assay type: in vivo, windgrass (Apera spica-venti)
Method in brief: as §1

[6] = system: lambsquarters; test: Test Example 4: herbicidal effect by soil treatment (Table 19, symbol O); assay type: in vivo, lambsquarters (Chenopodium album)
Method in brief: as §3

[7] = system: southern crabgrass; test: Test Example 5: herbicidal effect by foliage application, plastic box (Table 20, symbol F); assay type: in vivo, southern crabgrass (Digitaria ciliaris)
Method in brief: as §1

[8] = system: persian speedwell; test: Test Example 4: herbicidal effect by soil treatment (Table 19, symbol R); assay type: in vivo, Persian speedwell (Veronica persica)
Method in brief: as §3

[9] = system: wild oat; test: Test Example 5: herbicidal effect by foliage application, plastic box (Table 20, symbol I); assay type: in vivo, wild oat (Avena fatua)
Method in brief: as §1

[10] = system: oval-leafed pondweed; test: Test Example 2: herbicidal activity, application during weed generation under submerged conditions (Table 17, symbol C); assay type: in vivo, oval-leafed pondweed (Monochoria vaginalis); settings: AAH 320 g/ha; application during weed generation, submerged conditions
Method in brief: (§4)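 3-wk visual-criteria score after one water-surface dose. Emulsion formulation, water-diluted to set rate; applied at 1–2 leaf stage; alluvial soil, 4 cm standing water; seeds co-sown; greenhouse 25–30° C.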

[11] = system: Italian ryegrass; test: Test Example 4: herbicidal effect by soil treatment (Table 19, symbol K); assay type: in vivo, Italian ryegrass (Lolium multiflorum)
Method in brief: as §3

[12] = system: wild oat; test: Test Example 4: herbicidal effect by soil treatment (Table 19, symbol I); assay type: in vivo, wild oat (Avena fatua)
Method in brief: as §3

[13] = system: blackgrass; test: Test Example 5: herbicidal effect by foliage application, plastic box (Table 20, symbol J); assay type: in vivo, blackgrass (Alopecurus myosuroides)
Method in brief: as §1

[14] = system: chickweed; test: Test Example 5: herbicidal effect by foliage application, plastic box (Table 20, symbol P); assay type: in vivo, common chickweed (Stellaria media)
Method in brief: as §1

[15] = system: Japanese bulrush; test: Test Example 2: herbicidal activity, application during weed generation under submerged conditions (Table 17, symbol B); assay type: in vivo, Japanese bulrush (Schoenoplectus juncoides); settings: AAH 320 g/ha; application during weed generation, submerged conditions
Method in brief: as §4

[16] = system: barnyard grass; test: Test Example 4: herbicidal effect by soil treatment (Table 19, symbol H); assay type: in vivo, barnyard grass (Echinochloa crus-galli)
Method in brief: as §3

[17] = system: lambsquarters; test: Test Example 5: herbicidal effect by foliage application, plastic box (Table 20, symbol O); assay type: in vivo, lambsquarters (Chenopodium album)
Method in brief: as §1

[18] = system: chickweed; test: Test Example 4: herbicidal effect by soil treatment (Table 19, symbol P); assay type: in vivo, common chickweed (Stellaria media)
Method in brief: as §3

[19] = system: late watergrass; test: Test Example 2: herbicidal activity, application during weed generation under submerged conditions (Table 17, symbol A); assay type: in vivo, late watergrass (Echinochloa oryzicola); settings: AAH 320 g/ha; application during weed generation, submerged conditions
Method in brief: as §4

[20] = system: southern crabgrass; test: Test Example 4: herbicidal effect by soil treatment (Table 19, symbol F); assay type: in vivo, southern crabgrass (Digitaria ciliaris)
Method in brief: as §3

[21] = system: Italian ryegrass; test: Test Example 5: herbicidal effect by foliage application, plastic box (Table 20, symbol K); assay type: in vivo, Italian ryegrass (Lolium multiflorum)
Method in brief: as §1

[22] = system: redroot pigweed; test: Test Example 4: herbicidal effect by soil treatment (Table 19, symbol N); assay type: in vivo, redroot pigweed (Amaranthus retroflexus)
Method in brief: as §3

[23] = system: Chinese sprangletop; test: Test Example 3: herbicidal effect by foliage application, Wagner pot (Table 18, symbol D); assay type: in vivo, chinese sprangletop (Leptochloa chinensis); settings: 320 g/ha
Method in brief: as §2

[24] = system: windgrass; test: Test Example 4: herbicidal effect by soil treatment (Table 19, symbol L); assay type: in vivo, windgrass (Apera spica-venti)
Method in brief: as §3

[25] = system: redroot pigweed; test: Test Example 5: herbicidal effect by foliage application, plastic box (Table 20, symbol N); assay type: in vivo, redroot pigweed (Amaranthus retroflexus)
Method in brief: as §1

[26] = system: velvetleaf; test: Test Example 5: herbicidal effect by foliage application, plastic box (Table 20, symbol M); assay type: in vivo, velvetleaf (Abutilon theophrasti); settings: foliage application, AAH 320 g/ha, three weeks after application
Method in brief: as §1

[27] = system: velvetleaf; test: Test Example 4: herbicidal effect by soil treatment (Table 19, symbol M); assay type: in vivo, velvetleaf (Abutilon theophrasti)
Method in brief: as §3

[28] = system: rice flat sedge; test: Test Example 3: herbicidal effect by foliage application, Wagner pot (Table 18, symbol E); assay type: in vivo, rice flat sedge (Cyperus iria); settings: 320 g/ha
Method in brief: as §2

[29] = system: blackgrass; test: Test Example 4: herbicidal effect by soil treatment (Table 19, symbol J); assay type: in vivo, blackgrass (Alopecurus myosuroides)
Method in brief: as §3

[30] = system: green foxtail; test: Test Example 5: herbicidal effect by foliage application, plastic box (Table 20, symbol G); assay type: in vivo, green foxtail (Setaria viridis)
Method in brief: as §1

[31] = foliage application, AAH 320 g/ha, three weeks after application
[32] = 320 g/ha, foliage application after 14-day growth, evaluated three weeks after application
[33] = amount of applied herbicide 320 g/ha

Cc1nn(C)c(=O)c(-c2c(-c3ccccc3OCC(F)(F)F)sc3ccccc23)c1O [1-118]
R: persian speedwell, herbicidal effect [1, 31]: 5 (Herbicidal rate of 90% or more (almost completely withered))
H: barnyard grass, herbicidal effect [2, 31]: 2 (Herbicidal rate of 20% or more and less than 40%)
herbicidal effect on H (barnyard grass), rating 0-5 [3]: 4 (Herbicidal rate of 70% or more and less than 90%)
G: green foxtail, herbicidal effect rating ([4]; AAH 320 g/ha): 3 (Herbicidal rate of 40% or more and less than 70%)
L: windgrass, herbicidal effect [5, 31]: 5 (Herbicidal rate of 90% or more (almost completely withered))
O: lambsquarters, herbicidal effect rating ([6]; AAH 320 g/ha): 5 (Herbicidal rate of 90% or more (almost completely withered))
F: southern crabgrass, herbicidal effect [7, 31]: 5 (Herbicidal rate of 90% or more (almost completely withered))
R: persian speedwell, herbicidal effect rating ([8]; AAH 320 g/ha): 4 (Herbicidal rate of 70% or more and less than 90%)
I: wild oat, herbicidal effect [9, 31]: 4 (Herbicidal rate of 70% or more and less than 90%)
herbicidal effect rating, C: oval-leafed pondweed [10]: 0 (Herbicidal rate of 5% or less (almost no effect))
K: Italian ryegrass, herbicidal effect rating ([11]; AAH 320 g/ha): 0 (Herbicidal rate of 5% or less (almost no effect))
I: wild oat, herbicidal effect rating ([12]; AAH 320 g/ha): 3 (Herbicidal rate of 40% or more and less than 70%)
J: blackgrass, herbicidal effect [13, 31]: 4 (Herbicidal rate of 70% or more and less than 90%)
P: chickweed, herbicidal effect [14, 31]: 5 (Herbicidal rate of 90% or more (almost completely withered))
herbicidal effect rating, B: Japanese bulrush [15]: 0 (Herbicidal rate of 5% or less (almost no effect))
H: barnyard grass, herbicidal effect rating ([16]; AAH 320 g/ha): 4 (Herbicidal rate of 70% or more and less than 90%)
O: lambsquarters, herbicidal effect [17, 31]: 3 (Herbicidal rate of 40% or more and less than 70%)
P: chickweed, herbicidal effect rating ([18]; AAH 320 g/ha): 3 (Herbicidal rate of 40% or more and less than 70%)
herbicidal effect rating, A: late watergrass [19]: 3 (Herbicidal rate of 40% or more and less than 70%)
F: southern crabgrass, herbicidal effect rating ([20]; AAH 320 g/ha): 1 (Herbicidal rate of 5% or more and less than 20%)
K: Italian ryegrass, herbicidal effect [21, 31]: 4 (Herbicidal rate of 70% or more and less than 90%)
N: redroot pigweed, herbicidal effect rating ([22]; AAH 320 g/ha): 5 (Herbicidal rate of 90% or more (almost completely withered))
herbicidal effect on D (Chinese sprangletop), rating 0-5 [23]: 2 (Herbicidal rate of 20% or more and less than 40%)
L: windgrass, herbicidal effect rating ([24]; AAH 320 g/ha): 3 (Herbicidal rate of 40% or more and less than 70%)
N: redroot pigweed, herbicidal effect [25, 31]: 5 (Herbicidal rate of 90% or more (almost completely withered))
M: velvetleaf, herbicidal effect [26]: 5 (Herbicidal rate of 90% or more (almost completely withered))
M: velvetleaf, herbicidal effect rating ([27]; AAH 320 g/ha): 3 (Herbicidal rate of 40% or more and less than 70%)
herbicidal effect on E (rice flat sedge), rating 0-5 [28]: 2 (Herbicidal rate of 20% or more and less than 40%)
J: blackgrass, herbicidal effect rating ([29]; AAH 320 g/ha): 3 (Herbicidal rate of 40% or more and less than 70%)
G: green foxtail, herbicidal effect [30, 31]: 5 (Herbicidal rate of 90% or more (almost completely withered))

CCCC(=O)Oc1c(C)nn(C)c(=O)c1-c1c(-c2ccccc2OC)sc2c(Cl)cccc12 [4-022]
herbicidal effect on R: persian speedwell (evaluation grade 0-5) [1, 32]: 3 (Herbicidal rate of 40% or more and less than 70%)
herbicidal effect on H: barnyard grass (evaluation grade 0-5) [2, 32]: 4 (Herbicidal rate of 70% or more and less than 90%)
herbicidal effect on barnyard grass (H) [3]: 5 (Herbicidal rate of 90% or more (almost completely withered))
Herbicidal effect by soil treatment, G: green foxtail [4, 33]: 3 (Herbicidal rate of 40% or more and less than 70%)
herbicidal effect on L: windgrass (evaluation grade 0-5) [5, 32]: 5 (Herbicidal rate of 90% or more (almost completely withered))
Herbicidal effect by soil treatment, O: lambsquarters [6, 33]: 2 (Herbicidal rate of 20% or more and less than 40%)
herbicidal effect on F: southern crabgrass (evaluation grade 0-5) [7, 32]: 0 (Herbicidal rate of 5% or less (almost no effect))
Herbicidal effect by soil treatment, R: persian speedwell [8, 33]: 0 (Herbicidal rate of 5% or less (almost no effect))
herbicidal effect on I: wild oat (evaluation grade 0-5) [9, 32]: 0 (Herbicidal rate of 5% or less (almost no effect))
herbicidal effect rating, C: oval-leafed pondweed [10]: 0 (Herbicidal rate of 5% or less (almost no effect))
Herbicidal effect by soil treatment, K: Italian ryegrass [11, 33]: 0 (Herbicidal rate of 5% or less (almost no effect))
Herbicidal effect by soil treatment, I: wild oat [12, 33]: 0 (Herbicidal rate of 5% or less (almost no effect))
herbicidal effect on J: blackgrass (evaluation grade 0-5) [13, 32]: 0 (Herbicidal rate of 5% or less (almost no effect))
herbicidal effect on P: chickweed (evaluation grade 0-5) [14, 32]: 5 (Herbicidal rate of 90% or more (almost completely withered))
herbicidal effect rating, B: Japanese bulrush [15]: 2 (Herbicidal rate of 20% or more and less than 40%)
Herbicidal effect by soil treatment, H: barnyard grass [16, 33]: 3 (Herbicidal rate of 40% or more and less than 70%)
herbicidal effect on O: lambsquarters (evaluation grade 0-5) [17, 32]: 0 (Herbicidal rate of 5% or less (almost no effect))
Herbicidal effect by soil treatment, P: chickweed [18, 33]: 1 (Herbicidal rate of 5% or more and less than 20%)
herbicidal effect rating, A: late watergrass [19]: 0 (Herbicidal rate of 5% or less (almost no effect))
Herbicidal effect by soil treatment, F: southern crabgrass [20, 33]: 3 (Herbicidal rate of 40% or more and less than 70%)
herbicidal effect on K: Italian ryegrass (evaluation grade 0-5) [21, 32]: 1 (Herbicidal rate of 5% or more and less than 20%)
Herbicidal effect by soil treatment, N: redroot pigweed [22, 33]: 3 (Herbicidal rate of 40% or more and less than 70%)
herbicidal effect on Chinese sprangletop (D) [23]: 5 (Herbicidal rate of 90% or more (almost completely withered))
Herbicidal effect by soil treatment, L: windgrass [24, 33]: 0 (Herbicidal rate of 5% or less (almost no effect))
herbicidal effect on N: redroot pigweed (evaluation grade 0-5) [25, 32]: 3 (Herbicidal rate of 40% or more and less than 70%)
Herbicidal effect by soil treatment, M: velvetleaf [27, 33]: 0 (Herbicidal rate of 5% or less (almost no effect))
herbicidal effect on rice flat sedge (E) [28]: 4 (Herbicidal rate of 70% or more and less than 90%)
Herbicidal effect by soil treatment, J: blackgrass [29, 33]: 0 (Herbicidal rate of 5% or less (almost no effect))
herbicidal effect on G: green foxtail (evaluation grade 0-5) [30, 32]: 2 (Herbicidal rate of 20% or more and less than 40%)
